Key:
Details in all cases: 1 µM; binder
BIKE = BIKE (Homo sapiens, UniProt Q9NSY1)
BRSK1 = BRSK1 (Homo sapiens, UniProt Q8TDC3)
CAMK2D = CAMK2D (Homo sapiens, UniProt Q13557)
CAMK2G = CAMK2G (Homo sapiens, UniProt Q13555)
CSNK1A1 = CSNK1A1 (Homo sapiens, UniProt P48729)
CSNK2A1 = CSNK2A1 (Homo sapiens, UniProt P68400)
DCAMKL2 = DCAMKL2 (Homo sapiens, UniProt Q8N568)
DSTYK = DSTYK (Homo sapiens, UniProt Q6XUX3)
EIF2AK1 = EIF2AK1 (Homo sapiens, UniProt Q9BQI3)
EPHA6 = EPHA6 (Homo sapiens, UniProt Q9UF33)
HPK1 = HPK1 (Homo sapiens, UniProt Q92918)
IRAK4 = IRAK4 (Homo sapiens, UniProt Q9NWZ3)
MARK1 = MARK1 (Homo sapiens, UniProt Q9P0L2)
MARK3 = MARK3 (Homo sapiens, UniProt P27448)
MEK6 = MEK6 (Homo sapiens, UniProt P52564)
MLK1 = MLK1 (Homo sapiens, UniProt P80192)
MST1 = MST1 (Homo sapiens, UniProt Q13043)
NEK11 = NEK11 (Homo sapiens, UniProt Q8NG66)
PCTK1 = PCTK1 (Homo sapiens, UniProt Q00536)
PIK3C2B = PIK3C2B (Homo sapiens, UniProt O00750)
PIK3CA(E542K) = PIK3CA(E542K) (Homo sapiens, UniProt P42336, E542K)
PIK4CB = PIK4CB (Homo sapiens, UniProt Q9UBF8)
PIM2 = PIM2 (Homo sapiens, UniProt Q9P1W9)
PRKD3 = PRKD3 (Homo sapiens, UniProt O94806)
RIOK2 = RIOK2 (Homo sapiens, UniProt Q9BVS4)
STK36 = STK36 (Homo sapiens, UniProt Q9NRP7)
TAOK2 = TAOK2 (Homo sapiens, UniProt Q9UL54)
TLK1 = TLK1 (Homo sapiens, UniProt Q9UKI8)
TNNI3K = TNNI3K (Homo sapiens, UniProt Q59H18)
ZAK = ZAK (Homo sapiens, UniProt Q9NYL2)
p38-delta = p38-delta (Homo sapiens, UniProt O15264)
p38-delta, sequence (O15264 whole entry): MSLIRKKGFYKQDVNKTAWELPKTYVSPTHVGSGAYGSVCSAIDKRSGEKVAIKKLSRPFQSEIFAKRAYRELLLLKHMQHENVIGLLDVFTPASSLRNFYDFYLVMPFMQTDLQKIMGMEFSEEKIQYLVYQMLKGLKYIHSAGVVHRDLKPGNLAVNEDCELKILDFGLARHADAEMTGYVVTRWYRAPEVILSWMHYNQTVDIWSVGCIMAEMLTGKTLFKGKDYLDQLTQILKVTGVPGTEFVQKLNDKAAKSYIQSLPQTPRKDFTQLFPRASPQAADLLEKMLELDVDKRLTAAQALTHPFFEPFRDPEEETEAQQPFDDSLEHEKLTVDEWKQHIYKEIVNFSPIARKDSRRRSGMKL

PRKD3, sequence (O94806 whole entry): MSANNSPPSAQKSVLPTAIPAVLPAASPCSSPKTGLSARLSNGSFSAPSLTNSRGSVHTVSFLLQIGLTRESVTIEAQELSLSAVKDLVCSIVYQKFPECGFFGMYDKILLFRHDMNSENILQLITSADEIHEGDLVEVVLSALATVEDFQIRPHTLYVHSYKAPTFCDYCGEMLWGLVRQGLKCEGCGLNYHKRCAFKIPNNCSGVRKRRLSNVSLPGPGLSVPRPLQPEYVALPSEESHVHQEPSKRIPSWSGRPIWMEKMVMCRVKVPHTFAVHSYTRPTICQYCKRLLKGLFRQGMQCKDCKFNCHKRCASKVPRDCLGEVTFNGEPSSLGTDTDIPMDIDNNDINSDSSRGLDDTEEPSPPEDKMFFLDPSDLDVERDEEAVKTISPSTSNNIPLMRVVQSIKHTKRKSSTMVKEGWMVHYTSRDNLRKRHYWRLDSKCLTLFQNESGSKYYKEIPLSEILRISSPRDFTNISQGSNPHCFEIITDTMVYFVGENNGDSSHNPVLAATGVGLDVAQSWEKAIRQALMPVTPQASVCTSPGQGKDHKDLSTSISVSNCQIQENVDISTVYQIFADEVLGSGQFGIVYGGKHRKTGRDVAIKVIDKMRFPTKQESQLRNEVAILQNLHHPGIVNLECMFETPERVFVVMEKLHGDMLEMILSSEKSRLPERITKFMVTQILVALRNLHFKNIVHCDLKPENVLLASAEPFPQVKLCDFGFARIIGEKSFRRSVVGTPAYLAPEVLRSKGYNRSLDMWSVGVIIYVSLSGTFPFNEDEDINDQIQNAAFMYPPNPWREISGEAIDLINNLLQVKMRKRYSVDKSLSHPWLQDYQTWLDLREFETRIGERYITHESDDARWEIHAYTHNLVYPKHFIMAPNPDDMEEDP
HPK1, sequence (Q92918 whole entry): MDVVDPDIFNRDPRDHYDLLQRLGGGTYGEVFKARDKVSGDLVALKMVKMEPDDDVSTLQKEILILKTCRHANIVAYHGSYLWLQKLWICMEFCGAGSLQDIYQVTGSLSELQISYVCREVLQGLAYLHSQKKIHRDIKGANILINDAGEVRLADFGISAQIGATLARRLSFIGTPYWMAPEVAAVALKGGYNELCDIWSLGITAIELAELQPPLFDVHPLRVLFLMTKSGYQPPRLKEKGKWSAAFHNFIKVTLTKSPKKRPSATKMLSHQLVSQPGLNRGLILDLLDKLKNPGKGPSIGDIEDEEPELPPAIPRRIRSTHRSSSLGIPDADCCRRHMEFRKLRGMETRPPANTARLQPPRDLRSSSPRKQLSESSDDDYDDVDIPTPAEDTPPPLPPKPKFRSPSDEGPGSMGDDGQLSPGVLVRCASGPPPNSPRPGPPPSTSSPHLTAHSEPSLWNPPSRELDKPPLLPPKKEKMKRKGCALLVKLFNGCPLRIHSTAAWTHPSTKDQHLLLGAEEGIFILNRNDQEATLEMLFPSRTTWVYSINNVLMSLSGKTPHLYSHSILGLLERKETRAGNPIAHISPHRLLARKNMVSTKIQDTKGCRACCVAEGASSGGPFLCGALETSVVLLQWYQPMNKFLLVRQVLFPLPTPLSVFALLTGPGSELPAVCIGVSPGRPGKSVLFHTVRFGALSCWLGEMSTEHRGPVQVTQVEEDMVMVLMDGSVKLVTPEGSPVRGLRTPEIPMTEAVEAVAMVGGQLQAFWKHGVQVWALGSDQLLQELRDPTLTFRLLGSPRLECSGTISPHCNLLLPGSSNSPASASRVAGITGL
MEK6, sequence (P52564 whole entry): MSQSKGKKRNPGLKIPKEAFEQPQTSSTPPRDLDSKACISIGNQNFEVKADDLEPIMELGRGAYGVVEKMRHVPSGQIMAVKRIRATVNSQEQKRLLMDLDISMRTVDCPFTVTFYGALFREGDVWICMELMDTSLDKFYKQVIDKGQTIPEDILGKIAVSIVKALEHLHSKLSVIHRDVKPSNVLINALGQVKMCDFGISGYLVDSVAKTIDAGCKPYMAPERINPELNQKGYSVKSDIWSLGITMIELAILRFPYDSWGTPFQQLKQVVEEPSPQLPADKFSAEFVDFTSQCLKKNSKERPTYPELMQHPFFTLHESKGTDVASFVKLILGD
PIM2, sequence (Q9P1W9 whole entry): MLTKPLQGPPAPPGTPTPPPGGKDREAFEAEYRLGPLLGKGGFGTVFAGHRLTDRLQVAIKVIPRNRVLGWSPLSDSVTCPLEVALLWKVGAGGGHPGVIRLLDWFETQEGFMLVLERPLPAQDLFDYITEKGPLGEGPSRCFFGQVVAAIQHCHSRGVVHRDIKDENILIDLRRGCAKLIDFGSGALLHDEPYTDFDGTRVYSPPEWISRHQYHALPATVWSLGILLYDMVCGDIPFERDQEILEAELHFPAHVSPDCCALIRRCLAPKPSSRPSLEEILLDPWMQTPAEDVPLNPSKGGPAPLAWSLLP
TNNI3K, sequence (Q59H18 whole entry): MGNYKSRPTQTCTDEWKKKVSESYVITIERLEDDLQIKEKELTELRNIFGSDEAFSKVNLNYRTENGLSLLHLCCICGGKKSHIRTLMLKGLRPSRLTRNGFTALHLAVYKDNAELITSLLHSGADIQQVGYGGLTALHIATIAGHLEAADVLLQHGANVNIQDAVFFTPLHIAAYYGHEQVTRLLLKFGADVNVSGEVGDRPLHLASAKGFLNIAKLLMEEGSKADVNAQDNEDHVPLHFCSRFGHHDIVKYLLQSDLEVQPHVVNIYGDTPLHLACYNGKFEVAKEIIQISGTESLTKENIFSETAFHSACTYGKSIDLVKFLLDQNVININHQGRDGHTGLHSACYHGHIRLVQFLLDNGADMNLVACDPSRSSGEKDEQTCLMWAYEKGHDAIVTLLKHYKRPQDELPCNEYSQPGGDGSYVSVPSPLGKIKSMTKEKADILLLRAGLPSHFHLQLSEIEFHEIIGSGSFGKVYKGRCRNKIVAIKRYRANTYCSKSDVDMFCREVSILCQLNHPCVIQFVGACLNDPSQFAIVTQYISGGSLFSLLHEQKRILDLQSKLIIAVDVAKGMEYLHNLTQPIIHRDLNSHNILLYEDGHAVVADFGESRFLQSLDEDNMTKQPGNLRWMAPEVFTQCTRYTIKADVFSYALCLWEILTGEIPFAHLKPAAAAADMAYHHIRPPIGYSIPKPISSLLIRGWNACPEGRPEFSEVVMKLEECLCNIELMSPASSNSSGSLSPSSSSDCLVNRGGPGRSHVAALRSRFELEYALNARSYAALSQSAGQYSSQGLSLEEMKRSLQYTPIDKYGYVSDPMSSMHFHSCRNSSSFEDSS
PIK3CA(E542K), sequence (P42336 whole entry E542K): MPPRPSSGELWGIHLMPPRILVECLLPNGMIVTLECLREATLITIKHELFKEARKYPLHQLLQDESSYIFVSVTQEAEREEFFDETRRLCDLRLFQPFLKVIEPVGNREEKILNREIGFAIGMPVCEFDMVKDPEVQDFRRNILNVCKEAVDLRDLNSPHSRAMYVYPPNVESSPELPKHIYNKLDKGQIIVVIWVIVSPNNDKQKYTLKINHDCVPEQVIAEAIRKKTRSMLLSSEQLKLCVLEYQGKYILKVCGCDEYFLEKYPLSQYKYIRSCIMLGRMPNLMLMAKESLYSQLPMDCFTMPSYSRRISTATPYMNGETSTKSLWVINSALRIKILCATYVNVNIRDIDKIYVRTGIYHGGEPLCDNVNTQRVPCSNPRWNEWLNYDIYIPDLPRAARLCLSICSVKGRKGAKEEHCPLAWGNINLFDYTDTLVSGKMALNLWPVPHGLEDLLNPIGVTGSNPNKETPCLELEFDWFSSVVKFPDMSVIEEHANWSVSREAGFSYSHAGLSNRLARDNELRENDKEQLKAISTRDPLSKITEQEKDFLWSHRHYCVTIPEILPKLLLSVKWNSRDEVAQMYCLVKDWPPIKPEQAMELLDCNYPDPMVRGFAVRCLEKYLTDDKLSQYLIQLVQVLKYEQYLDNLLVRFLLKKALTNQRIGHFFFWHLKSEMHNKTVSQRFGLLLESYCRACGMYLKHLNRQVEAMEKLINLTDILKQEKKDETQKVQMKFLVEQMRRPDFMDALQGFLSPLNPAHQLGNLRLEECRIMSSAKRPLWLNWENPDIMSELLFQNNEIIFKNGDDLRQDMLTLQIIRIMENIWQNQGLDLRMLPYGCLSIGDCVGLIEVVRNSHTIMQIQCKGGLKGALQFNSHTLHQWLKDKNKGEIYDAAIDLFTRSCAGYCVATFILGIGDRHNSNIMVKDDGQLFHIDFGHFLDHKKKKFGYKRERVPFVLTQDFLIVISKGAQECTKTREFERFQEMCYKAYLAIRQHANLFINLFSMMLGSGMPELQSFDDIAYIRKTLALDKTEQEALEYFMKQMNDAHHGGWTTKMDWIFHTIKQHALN
CSNK1A1, sequence (P48729 whole entry): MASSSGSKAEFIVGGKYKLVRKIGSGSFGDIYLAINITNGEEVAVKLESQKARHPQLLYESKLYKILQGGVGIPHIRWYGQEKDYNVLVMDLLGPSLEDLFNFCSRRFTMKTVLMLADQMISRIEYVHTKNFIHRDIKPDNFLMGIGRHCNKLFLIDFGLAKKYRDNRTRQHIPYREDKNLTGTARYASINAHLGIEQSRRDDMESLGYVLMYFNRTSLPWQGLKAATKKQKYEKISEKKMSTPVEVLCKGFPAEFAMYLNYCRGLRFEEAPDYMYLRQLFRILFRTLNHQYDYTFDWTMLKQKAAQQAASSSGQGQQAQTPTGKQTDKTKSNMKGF

Q: How did the “Percent Control” value (BIKE) turn out when `CNc1ncc2cc(-c3ccc(-c4cccc(C)n4)cc3Cl)c(=O)n(C[C@H]3OC[C@H](N)CO3)c2n1` [compound 6, G-5555] was run?
A: The value was 100%.

Q: What about the “Percent Control” value (BRSK1) of the same compound?
A: Its value is 100%.

Q: And the “Percent Control” value (CAMK2D)?
A: Its value is 100%.

Q: And the “Percent Control” value (CAMK2G)?
A: The value was 100%.

Q: What about the “Percent Control” value (CSNK1A1) of the same compound?
A: The value was 89%.

Q: What about the “Percent Control” value (CSNK2A1) of the same compound?
A: The value was 98%.

Q: And the “Percent Control” value (DCAMKL2)?
A: Its value is 51%.

Q: And the “Percent Control” value (DSTYK)?
A: The value was 91%.

Q: And the “Percent Control” value (EIF2AK1)?
A: Its value is 100%.

Q: And the “Percent Control” value (EPHA6)?
A: Its value is 100%.

Q: And the “Percent Control” value (HPK1)?
A: Its value is 26%.

Q: And the “Percent Control” value (IRAK4)?
A: Its value is 95%.

Q: What about the “Percent Control” value (MARK1) of the same compound?
A: Its value is 68%.

Q: What about the “Percent Control” value (MARK3) of the same compound?
A: Its value is 18%.

Q: And the “Percent Control” value (MEK6)?
A: Its value is 30%.

Q: And the “Percent Control” value (MLK1)?
A: The value was 96%.

Q: And the “Percent Control” value (MST1)?
A: Its value is 51%.

Q: And the “Percent Control” value (NEK11)?
A: Its value is 100%.

Q: And the “Percent Control” value (PCTK1)?
A: The value was 100%.

Q: What about the “Percent Control” value (PIK3C2B) of the same compound?
A: The value was 100%.

Q: What about the “Percent Control” value (PIK3CA(E542K)) of the same compound?
A: The value was 100%.

Q: What about the “Percent Control” value (PIK4CB) of the same compound?
A: The value was 100%.

Q: What about the “Percent Control” value (PIM2) of the same compound?
A: Its value is 100%.

Q: What about the “Percent Control” value (PRKD3) of the same compound?
A: Its value is 20%.

Q: What about the “Percent Control” value (RIOK2) of the same compound?
A: Its value is 100%.

Q: What about the “Percent Control” value (STK36) of the same compound?
A: The value was 2.9%.

Q: What about the “Percent Control” value (TAOK2) of the same compound?
A: The value was 100%.

Q: What about the “Percent Control” value (TLK1) of the same compound?
A: Its value is 100%.

Q: What about the “Percent Control” value (TNNI3K) of the same compound?
A: The value was 98%.

Q: And the “Percent Control” value (ZAK)?
A: Its value is 100%.

Q: And the “Percent Control” value (p38-delta)?
A: The value was 100%.

From article doi:10.1101/2021.04.08.439011v1 (biorxiv, 2021)
